Laboratory results reported in patent US20110046482A1, “METHODS FOR REDUCING TOXICITIES ASSOCIATED WITH MEDICAL PROCEDURES EMPLOYING RADIOGRAPHIC CONTRAST AGENTS” (OREGON HEALTH & SCIENCE UNIVERSITY, priority 2006, published 2011).

Assays:
[1] = N-acetylcysteine dose escalation, IV at time 0, 4 and 8 hours, followed for two weeks
Procedure: Rats were given NAC IV at time 0, 4 hours, and 8 hours and were then followed for two weeks.

[2] = Effect of route of administration on biodistribution of radiolabelled NAC; format: in vivo; conditions: rats
Procedure: Radiolabelled NAC in combination with unlabeled NAC (140 mg/kg) was administered to rats with the following routes of infusion: IV; IA into the right carotid artery for brain infusion; aortic infusion (IA infusion via the left external carotid artery with left internal artery occlusion) to avoid brain infusion; and IA (right carotid) with osmotic Blood Brain Barrier Disruption (BBBD) to maximize delivery to the brain.

[3] = Blood/serum levels of NAC and thiols by HPLC after IV or PO NAC; format: in vivo
Procedure: NAC is known to enhance de novo glutathione synthesis, and may also impact levels of other thiols. […] In contrast to the IV results, the group given NAC 1200 mg/kg by the PO route had very low levels of serum NAC (0.12±0.12) at 15 min or 60 min after infusion.

[4] = Clearance of NAC, blood thiol concentration every 15 minutes by colorimetric kit; format: in vivo; conditions: rat, intravenous, other: IA into the descending aorta, IV or IA into the descending aorta, 140, 400, 1000 and 1200 mg/kg, all doses
Procedure: NAC was administered either IV or IA into the descending aorta, and blood samples were assessed for thiol concentration every 15 minutes using a colorimetric kit. The NAC doses tested were 140, 400, 1000, and 1200 mg/kg.

[5] = test system: cellular apoptosis proteins; experiment: NAC-mediated inhibition of cisplatin-induced apoptosis, Western Blot analysis; format: cell-based
Procedure: Thus, the ability of NAC to modulate cellular apoptosis proteins was evaluated by Western Blot analysis.

[6] = test system: cisplatin-induced nephrotoxicity; experiment: Cisplatin (10 mg/kg IP) nephrotoxicity model, BUN, creatinine and weight 3 days after treatment; format: in vivo; conditions: rats
Procedure: There are few animal models of contrast-induced nephropathy, and the reported models are not easily reproducible.
Rats were tested for renal toxicity 3 days after treatment by measuring serum concentrations of BUN and creatinine (CR).

[7] = test system: cumulative cisplatin nephrotoxicity; experiment: Multiple low dose cisplatin nephrotoxicity model; format: in vivo; conditions: rats
[8] = test system: cisplatin nephrotoxicity; experiment: Cisplatin nephrotoxicity after NAC IV, PO or IA in the descending aorta; format: in vivo; conditions: rats
Procedure: IV NAC was nephroprotective at a dose of 400 mg/kg but not at a lower dose of 50 mg/kg.

[9] = cisplatin 10 mg/kg IP + NAC 400 mg/kg IP
[10] = cisplatin 10 mg/kg IP + NAC 400 mg/kg PO

Compound: CC(=O)N[C@@H](CS)C(=O)O [NAC, N-acetylcysteine]
- safety/tolerability ([1]; rat, in vivo, iv, 1200 mg/kg): safe and well-tolerated
- weight loss and signs of toxicity ([1]; rat, in vivo, iv, 1200 mg/kg): no weight loss and no signs of toxicity
- tolerability of infusions ([1]; rat, in vivo, iv, 1500 mg/kg): tolerated the infusions well
- loss of body weight ([1]; rats, NAC IV 1500 mg/kg×3 (0, 4, 8 hours), within 2-3 days of infusion): 5%-10%
- radiolabel in brain ([2]; NAC 140 mg/kg, IA right carotid artery): high levels of radiolabel in the right cerebral hemisphere
- radiolabel in right cerebral hemisphere relative to IA without BBBD ([2]; NAC 140 mg/kg, IA right carotid with osmotic BBBD): doubled
- brain delivery of NAC ([2]; NAC 140 mg/kg, aortic infusion): negligible levels
- delivery to kidney ([2]; NAC 140 mg/kg, aortic infusion): increased systemic delivery to kidney
- amount of NAC found in the brain ([2]; radiolabelled + unlabeled NAC 140 mg/kg, IV): negligible amounts
- blood level of NAC (mean) ([3]; IV 100 mg/kg): 0.38 ± 0.16 mM
- blood level of NAC (mean) ([3]; IV 400 mg/kg): 2.19 ± 0.19 mM
- blood level of NAC (mean) ([3]; IV 1200 mg/kg): 6.22 ± 0.18 mM
- serum concentration of metabolite oxidized NAC relative to NAC alone ([3]; IV, 15 min after administration): approximately double
- serum NAC level ([3]; PO 1200 mg/kg, at 15 min or 60 min after infusion): 0.12 ± 0.12 mM
- half-life [4]: < 15 min
- protection against cisplatin cytotoxicity ([5]; NAC 8 hours after cisplatin): minimal
- effect on cytotoxic effects of cisplatin (apoptosis proteins) ([5]; NAC added concurrent with cisplatin or up to 2 hours after): reversed the cytotoxic effects of cisplatin
- protection against cisplatin cytotoxicity ([5]; NAC delayed more than 2 hours): protection was reduced
- BUN [6, 9]: 131.8 ± 8.2 mg/dL
- CR (creatinine) [6, 9]: 2.3±0.38
- BUN ([6]; cisplatin 10 mg/kg IP + NAC 400 mg/kg IV, p<0.0001): 26.33 ± 6.76 mg/dL
- CR (creatinine) ([6]; cisplatin 10 mg/kg IP + NAC 400 mg/kg IV, p<0.0013): 0.47±0.15
- BUN [6, 10]: 123.3 ± 8.2 mg/dL
- CR (creatinine) [6, 10]: 1.77±0.21
- percent weight loss over the test period versus the other groups ([6]; cisplatin + IV NAC, p<0.0001): significantly lower percent weight loss
- protection against nephrotoxicity ([7]; NAC 800 mg/kg IP 30 minutes before each cisplatin treatment): no protective effect
- protection against nephrotoxicity ([7]; NAC 800 mg/kg IV 30 minutes before each cisplatin treatment): protective against the cumulative nephrotoxicity
- nephroprotection ([8]; NAC 50 mg/kg IA in the descending aorta): significant nephroprotection
- nephroprotection ([8]; NAC 50 mg/kg IV): not nephroprotective
- nephroprotection ([8]; NAC 400 mg/kg IV): nephroprotective
- protection against cisplatin nephrotoxicity ([8]; NAC 400 mg/kg PO via nasogastric tube, cisplatin 10 mg/m^2): not protective
- time to renal failure ([8]; NAC 400 mg/kg PO, cisplatin 10 mg/m^2): ≤ 3 days
